Species on record: Rattus norvegicus
Test: Open TG-GATES - Regimen: Single
Assay type: toxicity, organism-based, Sprague-Dawley
Parameters: regimen Single, gender Male, age 6 weeks
Conditions: in vivo, po, 300 mg/kg, route gavage, dose level Middle; for APTT / Bas / Eos / Fbg / Hb / Ht / Lym / MCH / MCHC / MCV / Mono / Neu / PT / Plat / RBC / Ret / WBC: tissue Blood; for KIDNEY_L / KIDNEY_R / KIDNEY_TOTAL: tissue Kidney; for LIVER: tissue Liver; for A/G / ALP / ALT / AST / BUN / CRE / Ca / Cl / DBIL / GLC / IP / K / LDH / Na / PL / RALB / TBIL / TC / TG / TP / gamma-GTP: tissue Plasma

SMILES: CNC(=C[N+](=O)[O-])NCCSCc1ccc(CN(C)C)o1 [RANITIDINE]
- TERMINAL_BW (3 h): 216.6 g
- APTT (3 h): 21.3 s
- Bas (3 h): 0%
- Eos (3 h): 1.2%
- Fbg (3 h): 224 mg/dL
- Hb (3 h): 13.1 g/dL
- Ht (3 h): 38.4%
- Lym (3 h): 75.2%
- MCH (3 h): 21.7 pg
- MCHC (3 h): 34.2%
- MCV (3 h): 63.4 fL
- Mono (3 h): 2.4%
- Neu (3 h): 18.8%
- PT (3 h): 12.5 s
- Plat (3 h): 125.4 x10_4/uL
- RBC (3 h): 606 x10_4/ul
- Ret (3 h): 6.6%
- WBC (3 h): 93.9 x10_2/uL
- KIDNEY_L (3 h): 1 g
- KIDNEY_R (3 h): 1 g
- KIDNEY_TOTAL (3 h): 2 g
- LIVER (3 h): 9.9 g
- A/G (3 h): 1.7
- ALP (3 h): 1000.2 IU/L
- ALT (3 h): 34.4 IU/L
- AST (3 h): 63.8 IU/L
- BUN (3 h): 10.2 mg/dL
- CRE (3 h): 0.4 mg/dL
- Ca (3 h): 10.7 mg/dL
- Cl (3 h): 103.8 meq/L
- DBIL (3 h): 0.07 mg/dL
- GLC (3 h): 195.6 mg/dL
- IP (3 h): 8.4 mg/dL
- K (3 h): 3.8 meq/L
- LDH (3 h): 141.6 IU/L
- Na (3 h): 141.6 meq/L
- PL (3 h): 141.2 mg/dL
- RALB (3 h): 3.4 g/dL
- TBIL (3 h): 0.1 mg/dL
- TC (3 h): 74.2 mg/dL
- TG (3 h): 48 mg/dL
- TP (3 h): 5.5 g/dL
- gamma-GTP (3 h): 0.8 IU/L
- TERMINAL_BW (6 h): 214.7 g
- APTT (6 h): 18.8 s
- Bas (6 h): 0%
- Eos (6 h): 1%
- Fbg (6 h): 220.8 mg/dL
- Hb (6 h): 13.1 g/dL
- Ht (6 h): 37.8%
- Lym (6 h): 72.6%
- MCH (6 h): 21.6 pg
- MCHC (6 h): 34.7%
- MCV (6 h): 62.4 fL
- Mono (6 h): 2.4%
- Neu (6 h): 19.8%
- PT (6 h): 12.6 s
- Plat (6 h): 119.8 x10_4/uL
- RBC (6 h): 605 x10_4/ul
- Ret (6 h): 6.9%
- WBC (6 h): 82.1 x10_2/uL
- KIDNEY_L (6 h): 1 g
- KIDNEY_R (6 h): 1 g
- KIDNEY_TOTAL (6 h): 1.9 g
- LIVER (6 h): 9.2 g
- A/G (6 h): 1.6
- ALP (6 h): 918.8 IU/L
- ALT (6 h): 36.6 IU/L
- AST (6 h): 69.6 IU/L
- BUN (6 h): 8.4 mg/dL
- CRE (6 h): 0.4 mg/dL
- Ca (6 h): 10.4 mg/dL
- Cl (6 h): 103.6 meq/L
- DBIL (6 h): 0.06 mg/dL
- GLC (6 h): 193.4 mg/dL
- IP (6 h): 8.5 mg/dL
- K (6 h): 3.8 meq/L
- LDH (6 h): 111.4 IU/L
- Na (6 h): 140.4 meq/L
- PL (6 h): 129.2 mg/dL
- RALB (6 h): 3.3 g/dL
- TBIL (6 h): 0.1 mg/dL
- TC (6 h): 69.2 mg/dL
- TG (6 h): 43.2 mg/dL
- TP (6 h): 5.4 g/dL
- gamma-GTP (6 h): 1.4 IU/L
- TERMINAL_BW (9 h): 211.5 g
- APTT (9 h): 19.5 s
- Bas (9 h): 0%
- Eos (9 h): 1%
- Fbg (9 h): 241 mg/dL
- Hb (9 h): 13.3 g/dL
- Ht (9 h): 38.2%
- Lym (9 h): 67.8%
- MCH (9 h): 21.6 pg
- MCHC (9 h): 34.7%
- MCV (9 h): 62.3 fL
- Mono (9 h): 2.6%
- Neu (9 h): 26%
- PT (9 h): 12.7 s
- Plat (9 h): 116.8 x10_4/uL
- RBC (9 h): 614.4 x10_4/ul
- Ret (9 h): 7.2%
- WBC (9 h): 76 x10_2/uL
- KIDNEY_L (9 h): 1 g
- KIDNEY_R (9 h): 1 g
- KIDNEY_TOTAL (9 h): 1.9 g
- LIVER (9 h): 9.2 g
- A/G (9 h): 1.6
- ALP (9 h): 741.8 IU/L
- ALT (9 h): 32 IU/L
- AST (9 h): 61 IU/L
- BUN (9 h): 9.8 mg/dL
- CRE (9 h): 0.4 mg/dL
- Ca (9 h): 10.5 mg/dL
- Cl (9 h): 103.8 meq/L
- DBIL (9 h): 0.074 mg/dL
- GLC (9 h): 204.6 mg/dL
- IP (9 h): 8.4 mg/dL
- K (9 h): 3.6 meq/L
- LDH (9 h): 120.6 IU/L
- Na (9 h): 141.6 meq/L
- PL (9 h): 143.8 mg/dL
- RALB (9 h): 3.4 g/dL
- TBIL (9 h): 0.1 mg/dL
- TC (9 h): 76.4 mg/dL
- TG (9 h): 46 mg/dL
- TP (9 h): 5.6 g/dL
- gamma-GTP (9 h): 1.4 IU/L
- TERMINAL_BW (24 h): 230.2 g
- APTT (24 h): 23.9 s
- Bas (24 h): 0%
- Eos (24 h): 1%
- Fbg (24 h): 225.4 mg/dL
- Hb (24 h): 13.6 g/dL
- Ht (24 h): 38.7%
- Lym (24 h): 80.6%
- MCH (24 h): 22.5 pg
- MCHC (24 h): 35%
- MCV (24 h): 64.2 fL
- Mono (24 h): 2.4%
- Neu (24 h): 14%
- PT (24 h): 12.3 s
- Plat (24 h): 125.9 x10_4/uL
- RBC (24 h): 603.2 x10_4/ul
- Ret (24 h): 6.3%
- WBC (24 h): 104.2 x10_2/uL
- KIDNEY_L (24 h): 1 g
- KIDNEY_R (24 h): 1 g
- KIDNEY_TOTAL (24 h): 2 g
- LIVER (24 h): 11.2 g
- A/G (24 h): 1.7
- ALP (24 h): 1036.4 IU/L
- ALT (24 h): 33.4 IU/L
- AST (24 h): 63.2 IU/L
- BUN (24 h): 15.8 mg/dL
- CRE (24 h): 0.4 mg/dL
- Ca (24 h): 10.7 mg/dL
- Cl (24 h): 102.2 meq/L
- DBIL (24 h): 0.086 mg/dL
- GLC (24 h): 196.6 mg/dL
- IP (24 h): 7.6 mg/dL
- K (24 h): 4 meq/L
- LDH (24 h): 132.6 IU/L
- Na (24 h): 140 meq/L
- PL (24 h): 152.8 mg/dL
- RALB (24 h): 3.4 g/dL
- TBIL (24 h): 0.1 mg/dL
- TC (24 h): 79.2 mg/dL
- TG (24 h): 78.6 mg/dL
- TP (24 h): 5.3 g/dL
- gamma-GTP (24 h): 1 IU/L

From ChEMBL document CHEMBL3885861, “Open TG-GATES”
